Assay [1] has as its system NFAT signal. The assay is described as follows: NFAT signal inhibitory effect: pNFAT-Luc luciferase reporter assay with ionomycin stimulation. The format is cell-based, human. The following applies: HEK293 cells transfected with pNFAT-Luc; 1 μM ionomycin; assay after 8 hours; FIG. 4. On the procedure: (1) Materials and Methods for Evaluation System
In this evaluation system, human kidney (HEK293) cells were purchased from ATCC (American Type Culture Collection) and used. HEK293 cells were cultured in DMEM (High glucose, 10% heat-inactivated FBS) under the conditions of 37° C. and 5% CO2.
In this evaluation system, HEK293 cells transfected with a plasmid having firefly luciferase introduced into the downstream of the NFAT-binding sequence, pNFAT-Luc (Stratagene), were used. More specifically, pNFAT-Luc (Stratagene), in which firefly luciferase gene was introduced in the downstream of 4 copies of the NFAT-binding sequence, was transfected into HEK293 cells for an evaluation of the NFAT transcription activity. Furthermore, for the purpose of eliminating fluctuation due to the transfection efficiency, pRL-CMV (Promega) having Renilla luciferase introduced in the downstream of CMV promoter, was simultaneously transfected so as to correct for the signal derived from firefly luciferase.
Transfection was carried out using LipofectAMINE 2000 reagent (Invitrogen) according to the manual. The medium was exchanged eight hours after the transfection, and the system was incubated overnight. Thereafter, the component A, component B and component C obtained in Example 1, and the deacylation product of the component A prepared in Example 3 were added thereto, and further after one hour, 1 μM ionoinycin was added thereto. After 8 hours, a luciferase reporter assay was carried out.
Luciferase Reporter Assay
The luciferase reporter assay was carried out using Dual-Glo Luciferase Assay System (Promega) according to the manual. That is, the medium was removed, and then Dual-Glo luciferase reagent which had been diluted two times with PBS, was added thereto. The system was stirred, and after 20 minutes, the firefly luciferase activity was measured. Thereafter, an equal amount of Dual-Glo Stop&Glo reagent was added to the system, the mixture was stirred, and then the Renilla luciferase activity was measured. The luciferase activity measurement was carried out using MiniLumat LB 9506 (EG&G Berthold), and the amount of luminescence by luciferase was quantitatively detected. For both luciferases, the duration for luciferase activity measurement was set to 2 seconds.
Calculation of NFAT Signal Inhibitory Rate.
All of the NFAT transcription activity values (firefly luciferase activity) were corrected by dividing the values of the Renilla luciferase activity introduced for the transfection efficiency correction. Thereafter, the NFAT signal inhibitory rate was calculated by the following expression.
NFAT signal inhibitory rate (%)=100−(Test sample and ionomycin-added group−non-stimulation group)/(Ionomycin only-added group−non-stimulation group)×100

Assay [2] concerns swine hair follicles. As to the kind of experiment: Evaluation of hair shaft elongation by swine hair follicle organ culture. The format is cell-based. Particulars: isolated pig hair follicles cultured 8 days; solvent control (ethanol) taken as 100%; FIG. 6. As for the experimental part: Evaluation of Hair Shaft Elongation by Swine Hair Follicle Organ Culture
The skin of buttocks of a pig for meat was separated into an appropriate size, and excess fatty tissue was removed. The pigskin was disinfected by immersing in a hibitane solution (5% hibitane solution (Dainippon Sumitomo Pharma Co., Ltd.) diluted to 5 to 20 times with water) for 5 minutes to 10 minutes under sterile conditions, and after that was washed several times with D-PBS. Subsequently, hair follicles were isolated from the washed pigskin under a stereoscopic microscope, and the hair follicles were collected in William's Medium E (Invitrogen) medium. […]
The component A and component B obtained in Example 1 were added to the above-mentioned medium, and the system was cultured for 8 days, together with an ethanol-added group, which was a solvent control. Stereomicroscopic images of the culture were captured on the day of culture initiation (zeroth day) and on the eighth day with a CCD camera (Pixera Model No. PVC 100C), and from those images, the length from the base of the hair bulb to the tip of the hair shaft was measured. Thereafter, the hair shaft elongation ratios of the component A and component B obtained in Example 1 were calculated, with the amount of hair shaft elongation of the solvent control group before and after culture being taken as 100%.

The structures appear in SMILES notation. “Also recorded” adds a separate entry of the source.

As to `C/C=C(/C)C(=O)OC1c2c(ccc3ccc(=O)oc23)O[C@@H]1C(C)(C)OC(=O)/C(C)=C\C` (stereo partly drawn) [component A, archangelicin], the “NFAT signal inhibitory rate” value in assay [1] is “inhibited the NFAT signal; also recorded: strong NFAT signal inhibitory activity”. Further, the “hair shaft elongation ratio (hair-growing effect)” value in assay [2] is reported as “significant hair shaft elongation”. For `C/C=C(/C)C(=O)OC1c2c(ccc3ccc(=O)oc23)OC1C(C)(C)OC(=O)CC(C)C` (stereo not drawn) [component B, 3′-angeloyloxy-4′-isovaleryloxy-2′,3′-dihydrooroselol], in that order: “inhibited the NFAT signal; also recorded: strong NFAT signal inhibitory activity” and “significant hair shaft elongation”. `C/C=C(/C)C(=O)OC1c2c(ccc3ccc(=O)oc23)O[C@@H]1C(C)(C)OC(=O)C=C(C)C` (stereo partly drawn) [component C, 3′-angeloyloxy-4′-senecioyloxy-2′,3′-dihydrooroselol]: the “NFAT signal inhibitory rate” value in assay [1] was “inhibited the NFAT signal; also recorded: strong NFAT signal inhibitory activity”. In the case of `C/C=C(/C)C(=O)OC(C)(C)[C@H]1Oc2ccc3ccc(=O)oc3c2[C@H]1O` [deacylation product of the component A, 3′-hydroxy-4′-angeloyloxy-2′,3′-dihydrooroselol], the “NFAT signal inhibitory rate” value in assay [1] is reported as “inhibited the NFAT signal”.

For the origin of these results see patent US8420836B2, “NFAT signal inhibitor and hair-growing agent” (Kao Corporation, priority 2008, dated 2013).
